In patent US20190262457A1, “NOVEL ALKYLATING AGENT” (CHIBA-PREFECTURE, priority 2016, published 2019):
Like-named read-outs stand apart in the source and are kept apart here.

Tests used:
malignant melanoma = conditions: phase III clinical trial; cited from earlier work
RKO cells = test: Cytotoxicity and IC50 comparison with CBI by WST assay, 48 hours; format: cell-based, human; conditions: Homo sapiens, WST-8
Experimental: (§1) From the cell lines mentioned above, a large intestine cancer cell line SW480 was used as cells expressing PD-1, and a large intestine cancer cell line RKO was used as cells expressing PD-L1. An experiment was conducted to compare toxicity and IC50 between the PIP-drug conjugate compound CCC07-01 and the alkylating agent CBI used as a drug conjugate therein. The cells of each line were inoculated at 3000 cells/well to a 96-well microplate and cultured overnight. On the next day, the cells were treated with the PIP-CBI conjugate (CCC07-01) or CBI having a concentration of 0.1, 1, 10, 30, 100, 300, or 1000 nM (1 μM) for 48 hours. Then, WST-8 reagent was added to each well using Cell counting kit-8, and the mixture was reacted for 2 hours. Then, the cell count was calculated at a wavelength of 450 nm by the colorimetric analysis method using a microplate reader. The method for calculating the cell count involved: 1) obtaining the mean value of a medium alone, 2) subtracting the mean value of the medium from each well, 3) obtaining the mean value of DMSO, 4) dividing the medium mean value-subtracted value by the mean value of DMSO and then multiplying by 100, and 5) obtaining the mean value of each treatment group and a standard deviation, and preparing a graph. IC50 was calculated according to the following expression: IC50=10(LOG(A/B)×(50−C)/(D−C)+LOG(B) wherein A: a higher concentration of two concentrations sandwiching 50%, B: a lower concentration of two concentrations sandwiching 50%, C: the rate of inhibition at B, and D: the rate of inhibition at A.

SW480 cells = test: as above; format: cell-based, human; conditions: Homo sapiens, WST-8
Experimental: as §1

CTLA4 gene [1] = test: Study on CTLA4 gene silencing by negative control polyamide CCC07-04; format: cell-based, human; conditions: A2058 cells
Experimental: (§2) A2058 cells were cultured at 1×10^5 cells/well in a 6-well plate. On the next day, the cells were treated with 0, 5, 50, or 500 nM CCC07-04 for 6 hours, 24 hours, or 48 hours. The cells were recovered, and total RNA was extracted therefrom. The extraction employed AllPrep DNA/RNA Mini Kit (Qiagen N.V., CA). Next, cDNA was prepared by reverse transcription with the extracted RNA as a template using Super Script VILO™ Master Mix (Invitrogen Corp., CA) and subjected to qPCR. The qPCR conditions involved a holding stage at 50° C. for 2 min and 95° C. for 10 min, a cycling stage (40 cycles) at 95° C. for 15 sec and at 60° C. for 1 min, and a melt curve stage at 95° C. for 15 sec, at 60° C. for 1 min, at 95° C. for 30 sec, and at 60° C. for 15 sec. A relative expression level was quantified with GAPDH (primers: SEQ ID NOs: 21 and 22) as a control. The PCR of CTLA4 employed the following primer set.

mouse Pd-11 gene = test: Experiment to silence mouse Pd-11 gene by real-time PCR; format: cell-based; conditions: B16F1 cells
Experimental: as §2, with “B16F1” for “A2058”, “100, 200, 300, 400,” for “5, 50,”, “(3-tubulin” for “GAPDH (primers: SEQ ID NOs: 21 and 22)”, “Pd-11” for “CTLA4”

PD-L1 gene = test: Experiment to silence PD-L1 gene by real-time PCR, CCC07-03; format: cell-based, human
Experimental: as §2, with “RKO” for “A2058”, “CCC07-03” for “CCC07-04”, “GAPDH” for “GAPDH (primers: SEQ ID NOs: 21 and 22)”, “PD-L1” for “CTLA4”

CTLA4 gene [2] = test: Experiment to silence CTLA4 gene by real-time PCR, CCC07-03; format: cell-based, human; conditions: A2058 cells
Experimental: as §2, with “CCC07-03” for “CCC07-04”

[3] = known log-P of calibration compounds; cited from earlier work
[4] = known log-P of calibration compounds; cited from earlier work; remark: listed apart in the source
[5] = 24 hours or later after administration

Compound: ipilimumab: anti-CTLA-4 antibody
- objective response rate (ORR) (malignant melanoma): 11%

Compound: Oc1cc2c(c3ccccc13)C(CCl)CN2 (stereo not shown) [CBI, 1-chloromethyl-5-hydroxy-1,2-dihydro-3H-benzo [e]indole, reference compound]
- IC50 (RKO cells): 3 nM
- IC50 (SW480 cells): 10 nM

Compound: CC(=O)Nc1cn(C)c(C(=O)Nc2cn(C)c(C(=O)Nc3cc(C(=O)NCCC(=O)Nc4cc(C(=O)Nc5cn(C)c(C(=O)Nc6cn(C)c(C(=O)NCCCC(=O)Nc7cc(C(=O)Nc8cc(C(=O)Nc9cc(C(=O)NCCC(=O)Nc%10cn(C)c(C(=O)Nc%11ccc%12[nH]c(C(=O)N%13CC(CCl)c%14c%13cc(O)c%13ccccc%14%13)cc%12c%11)n%10)n(C)c9)n(C)c8)n(C)c7)n6)n5)n(C)c4)n(C)c3)n2)n1 (stereo not shown) [CCC07-04]
- expression of CTLA-4 (CTLA4 gene [1]; 6 hours): elevated
- state of the cells (cell death suggested) (CTLA4 gene [1]; [5]): All the cells floated
- expression of Pd-11 (mouse Pd-11 gene; 100-500 nM, 6 hours): statistically significantly decreased
- state of the cells (cell death suggested) (mouse Pd-11 gene; [5]): All the mouse B16F1 cells floated

Compound: CC(=O)Nc1cn(C)c(C(=O)Nc2cn(C)c(C(=O)Nc3cc(C(=O)NCCC(=O)Nc4cn(C)c(C(=O)Nc5cc(C(=O)Nc6cc(C(=O)NCCCC(=O)Nc7cn(C)c(C(=O)Nc8cn(C)c(C(=O)Nc9cc(C(=O)NCCC(=O)Nc%10cc(C(=O)Nc%11ccc%12[nH]c(C(=O)N%13CC(CCl)c%14c%13cc(O)c%13ccccc%14%13)cc%12c%11)n(C)c%10)n(C)c9)n8)n7)n(C)c6)n(C)c5)n4)n(C)c3)n2)n1 (stereo not shown) [CCC07-03]
- expression of PD-L1 (PD-L1 gene; RKO cells, 50 nM, 24 hours): statistically significantly decreased
- expression of PD-L1 (PD-L1 gene; RKO cells, 500 nM, 6 hours): tended to be decreased
- expression of PD-L1 (PD-L1 gene; RKO cells, 5, 50, 500 nM, 48 hours): decreased according to the concentration
- expression of CTLA-4 (CTLA4 gene [2]; 500 nM, 24 hours): markedly decreased
- expression of CTLA-4 (CTLA4 gene [2]; 6 hours): elevated

Compound: c1ccc2[nH]ccc2c1 [Indole]
- logPow [3]: 2.14
- logPow [4]: 2.14

Compound: N#Cc1ccccc1 [Benzonitrile]
- logPow [4]: 1.56

Compound: CCOC(C)=O [Ethyl acetate]
- logPow [4]: 0.73
